Assay results published in ChEMBL document CHEMBL5634130, “Exploring the structural-activity relationship of hexahydropyrazino[1,2-d]pyrido[3,2-b][1,4]oxazine derivatives as potent and orally-bioavailable PARP7 inhibitors” (Eur J Med Chem, 2023).
Converted amounts (≈) assume the structure as drawn.

Key:
[1] = Clearance in fasted ICR mouse at 2 mg/kg, iv measured for 24 hrs by LC-MS analysis; assay type: ADME, organism-based; settings: in vivo
[2] = Half life in fasted ICR mouse at 2 mg/kg, iv measured for 24 hrs by LC-MS analysis; assay type: ADME, organism-based; settings: in vivo
[3] = AUC in fasted ICR mouse at 2 mg/kg, iv measured for 24 hrs by LC-MS analysis; assay type: ADME, organism-based; settings: in vivo
[4] = Volume of distribution at steady state in fasted ICR mouse at 2 mg/kg, iv measured for 24 hrs by LC-MS analysis; assay type: ADME, organism-based; settings: in vivo, read-out: Vdss
[5] = Tmax in fasted ICR mouse at 10 mg/kg, po measured for 24 hrs by LC-MS analysis; assay type: ADME, organism-based; settings: in vivo
[6] = Half life in fasted ICR mouse at 10 mg/kg, po measured for 24 hrs by LC-MS analysis; assay type: ADME, organism-based; settings: in vivo
[7] = Cmax in fasted ICR mouse at 10 mg/kg, po measured for 24 hrs by LC-MS analysis; assay type: ADME, organism-based; settings: in vivo
[8] = AUC in fasted ICR mouse at 10 mg/kg, po measured for 24 hrs by LC-MS analysis; assay type: ADME, organism-based; settings: in vivo
[9] = Oral bioavailability in fasted ICR mouse at 10 mg/kg measured for 24 hrs by LC-MS analysis; assay type: ADME, organism-based; settings: in vivo
NCI-H1373 = test: Antitumor activity against human NCI-H1373 cells xenografted in […] SCID mouse model assessed as tumor growth inhibition at 30 mg/kg, po administered everyday measured after 21 days relative to control; assay type: functional; settings: NCI-H1373, 504 h, time 21 day, read-out: TGI
[10] = Toxicity in […] SCID mouse model xenografted with human NCI-H1373 cells assessed as animal death at 30 mg/kg, po measured for 21 days; assay type: organism-based; settings: in vivo, 504 h, time 21 day
[11] = Toxicity in […] SCID mouse model xenografted with human NCI-H1373 cells assessed as body weight loss at 30 mg/kg, po measured for 21 days; assay type: organism-based; settings: in vivo, 504 h, time 21 day
[12] = Half life in fasted Beagle dog at 2 mg/kg, iv measured for 24 hrs by LC-MS analysis; assay type: ADME, organism-based, Canis lupus familiaris; settings: in vivo
[13] = AUC in fasted Beagle dog at 2 mg/kg, iv measured for 24 hrs by LC-MS analysis; assay type: ADME, organism-based, Canis lupus familiaris; settings: in vivo, iv, 2 mg/kg, 24 h
[14] = Volume of distribution at steady state in fasted Beagle dog at 2 mg/kg, iv measured for 24 hrs by LC-MS analysis; assay type: ADME, organism-based, Canis lupus familiaris; settings: in vivo, read-out: Vdss
[15] = Tmax in fasted Beagle dog at 10 mg/kg, po measured for 24 hrs by LC-MS analysis; assay type: ADME, organism-based, Canis lupus familiaris; settings: in vivo
[16] = Half life in fasted Beagle dog at 10 mg/kg, po measured for 24 hrs by LC-MS analysis; assay type: ADME, organism-based, Canis lupus familiaris; settings: in vivo
[17] = Cmax in fasted Beagle dog at 10 mg/kg, po measured for 24 hrs by LC-MS analysis; assay type: ADME, organism-based, Canis lupus familiaris; settings: in vivo
[18] = AUC in fasted Beagle dog at 10 mg/kg, po measured for 24 hrs by LC-MS analysis; assay type: ADME, organism-based, Canis lupus familiaris; settings: in vivo
[19] = Oral bioavailability in fasted Beagle dog at 10 mg/kg measured for 24 hrs by LC-MS analysis; assay type: ADME, organism-based, Canis lupus familiaris; settings: in vivo
[20] = Kinetic solubility of compound at pH 2; assay type: physicochemical; settings: buffer, read-out: Kinetic_solubility
[21] = Kinetic solubility of compound at pH 6.5; assay type: physicochemical; settings: buffer, read-out: Kinetic_solubility
[22] = Kinetic solubility of compound at pH 7.4; assay type: physicochemical; settings: buffer, read-out: Kinetic_solubility
[23] = Thermodynamic solubility of compound at pH 2; assay type: physicochemical; settings: buffer, read-out: Therm_solubility
[24] = Thermodynamic solubility of compound at pH 6.5; assay type: physicochemical; settings: buffer, read-out: Therm_solubility
[25] = Thermodynamic solubility of compound at pH 7.4; assay type: physicochemical; settings: buffer, read-out: Therm_solubility
[26] = Apparent permeability across apical to basolateral side in MDCKII-MDR1 cells incubated for 2 hrs by LC-MS analysis; assay type: ADME, cell-based, Canis lupus familiaris; settings: dog, MDCK-MDR1
[27] = Apparent permeability across basolateral to apical side in MDCKII-MDR1 cells incubated for 2 hrs by LC-MS analysis; assay type: ADME, cell-based, Canis lupus familiaris; settings: dog, MDCK-MDR1
[28] = Passive permeability in MDCKII-MDR1 cells incubated for 2 hrs by LC-MS analysis; assay type: ADME, cell-based, Canis lupus familiaris; settings: dog, MDCK-MDR1, read-out: permeability
[29] = Plasma protein binding in human at 2 uM incubated for 1 hr by LC/MS analysis; assay type: ADME, cell-free; settings: read-out: PPB (converted)
[30] = Plasma protein binding in monkey at 2 uM incubated for 1 hr by LC/MS analysis; assay type: ADME, cell-free, Macaca mulatta; settings: rhesus monkey, read-out: PPB (converted)
[31] = Plasma protein binding in dog at 2 uM incubated for 1 hr by LC/MS analysis; assay type: ADME, cell-free, Canis lupus familiaris; settings: read-out: PPB (converted)
[32] = Plasma protein binding in rat at 2 uM incubated for 1 hr by LC/MS analysis; assay type: ADME, cell-free; settings: read-out: PPB (converted)
[33] = Plasma protein binding in mouse at 2 uM incubated for 1 hr by LC/MS analysis; assay type: ADME, cell-free; settings: read-out: PPB (converted)
[34] = Metabolic stability in human liver microsomes assessed as intrinsic clearance preincubated for 5 mins followed by NADPH addition measured for 1 hr by LC-MS analysis; assay type: ADME, Microsome; settings: time 65 min, read-out: CLH
[35] = Metabolic stability in monkey liver microsomes assessed as intrinsic clearance preincubated for 5 mins followed by NADPH addition measured for 1 hr by LC-MS analysis; assay type: ADME, Macaca mulatta, Microsome; settings: rhesus monkey, time 65 min, read-out: CLH
[36] = Metabolic stability in dog liver microsomes assessed as intrinsic clearance preincubated for 5 mins followed by NADPH addition measured for 1 hr by LC-MS analysis; assay type: ADME, Canis lupus familiaris, Microsome; settings: time 65 min, read-out: CLH
[37] = Metabolic stability in rat liver microsomes assessed as intrinsic clearance preincubated for 5 mins followed by NADPH addition measured for 1 hr by LC-MS analysis; assay type: ADME, Microsome; settings: time 65 min, read-out: CLH
[38] = Metabolic stability in mouse liver microsomes assessed as intrinsic clearance preincubated for 5 mins followed by NADPH addition measured for 1 hr by LC-MS analysis; assay type: ADME, Microsome; settings: time 65 min, read-out: CLH
Cytochrome P450 1A2 = molecular target: T1, Cytochrome P450 1A2 (Homo sapiens, UniProt P05177); test: Inhibition of CYP1A2 in human liver microsomes using phenacetin as substrate preincubated for 10 mins followed by substrate addition measured for 30 mins by LC-MS analysis; assay type: ADME, Microsome
T1 sequence (P05177 whole entry): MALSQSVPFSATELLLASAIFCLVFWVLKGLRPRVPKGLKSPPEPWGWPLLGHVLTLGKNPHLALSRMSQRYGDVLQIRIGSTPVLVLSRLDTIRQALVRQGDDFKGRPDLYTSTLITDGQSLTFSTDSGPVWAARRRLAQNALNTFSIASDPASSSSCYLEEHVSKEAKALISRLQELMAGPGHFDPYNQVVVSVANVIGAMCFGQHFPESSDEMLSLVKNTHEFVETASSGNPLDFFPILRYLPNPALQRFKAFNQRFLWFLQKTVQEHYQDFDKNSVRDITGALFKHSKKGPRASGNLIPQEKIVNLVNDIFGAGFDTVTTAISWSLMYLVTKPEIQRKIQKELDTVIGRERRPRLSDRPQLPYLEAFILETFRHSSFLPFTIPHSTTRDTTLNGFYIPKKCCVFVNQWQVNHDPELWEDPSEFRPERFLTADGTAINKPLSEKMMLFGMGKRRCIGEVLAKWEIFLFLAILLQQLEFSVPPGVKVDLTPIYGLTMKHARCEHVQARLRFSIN

Cytochrome P450 2C9 = Cytochrome P450 2C9 (Homo sapiens, UniProt P11712); test: Inhibition of CYP2C9 in human liver microsomes using diclofenac as substrate preincubated for 10 mins followed by substrate addition measured for 30 mins by LC-MS analysis; assay type: ADME, Microsome
Sequence of Cytochrome P450 2C9 (P11712 whole entry): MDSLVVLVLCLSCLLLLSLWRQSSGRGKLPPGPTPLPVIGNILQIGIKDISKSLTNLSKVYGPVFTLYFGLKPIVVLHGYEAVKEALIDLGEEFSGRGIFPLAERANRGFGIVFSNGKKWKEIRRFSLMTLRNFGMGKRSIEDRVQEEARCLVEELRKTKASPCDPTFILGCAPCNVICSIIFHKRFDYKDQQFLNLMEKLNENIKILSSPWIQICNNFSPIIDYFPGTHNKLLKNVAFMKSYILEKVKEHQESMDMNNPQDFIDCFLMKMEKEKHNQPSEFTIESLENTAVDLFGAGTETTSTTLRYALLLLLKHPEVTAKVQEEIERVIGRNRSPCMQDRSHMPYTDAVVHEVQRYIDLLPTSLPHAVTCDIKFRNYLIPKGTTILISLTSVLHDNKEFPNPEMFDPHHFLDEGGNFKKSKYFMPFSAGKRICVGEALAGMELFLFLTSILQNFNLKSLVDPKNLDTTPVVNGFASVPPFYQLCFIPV

Cytochrome P450 2C19 = Cytochrome P450 2C19 (Homo sapiens, UniProt P33261); test: Inhibition of CYP2C19 in human liver microsomes using mephenytoin as substrate preincubated for 10 mins followed by substrate addition measured for 30 mins by LC-MS analysis; assay type: ADME, Microsome
Sequence of Cytochrome P450 2C19 (P33261 whole entry): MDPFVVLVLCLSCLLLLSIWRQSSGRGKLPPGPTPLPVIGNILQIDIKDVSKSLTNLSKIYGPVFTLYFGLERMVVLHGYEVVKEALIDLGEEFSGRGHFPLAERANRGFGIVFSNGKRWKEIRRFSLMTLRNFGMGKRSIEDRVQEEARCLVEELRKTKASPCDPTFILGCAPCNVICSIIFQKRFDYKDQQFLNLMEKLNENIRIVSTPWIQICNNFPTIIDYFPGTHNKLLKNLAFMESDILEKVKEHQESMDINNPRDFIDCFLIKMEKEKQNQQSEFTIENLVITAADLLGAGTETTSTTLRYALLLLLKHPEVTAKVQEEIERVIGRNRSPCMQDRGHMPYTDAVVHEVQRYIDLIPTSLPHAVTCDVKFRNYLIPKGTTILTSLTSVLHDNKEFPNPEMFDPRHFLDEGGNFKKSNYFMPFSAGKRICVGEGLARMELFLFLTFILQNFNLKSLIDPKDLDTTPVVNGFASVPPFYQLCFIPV

Cytochrome P450 2D6 = Cytochrome P450 2D6 (Homo sapiens, UniProt P10635); test: Inhibition of CYP2D6 in human liver microsomes using dextromethorphan as substrate preincubated for 10 mins followed by substrate addition measured for 30 mins by LC-MS analysis; assay type: ADME, Microsome
Sequence of Cytochrome P450 2D6 (P10635 whole entry): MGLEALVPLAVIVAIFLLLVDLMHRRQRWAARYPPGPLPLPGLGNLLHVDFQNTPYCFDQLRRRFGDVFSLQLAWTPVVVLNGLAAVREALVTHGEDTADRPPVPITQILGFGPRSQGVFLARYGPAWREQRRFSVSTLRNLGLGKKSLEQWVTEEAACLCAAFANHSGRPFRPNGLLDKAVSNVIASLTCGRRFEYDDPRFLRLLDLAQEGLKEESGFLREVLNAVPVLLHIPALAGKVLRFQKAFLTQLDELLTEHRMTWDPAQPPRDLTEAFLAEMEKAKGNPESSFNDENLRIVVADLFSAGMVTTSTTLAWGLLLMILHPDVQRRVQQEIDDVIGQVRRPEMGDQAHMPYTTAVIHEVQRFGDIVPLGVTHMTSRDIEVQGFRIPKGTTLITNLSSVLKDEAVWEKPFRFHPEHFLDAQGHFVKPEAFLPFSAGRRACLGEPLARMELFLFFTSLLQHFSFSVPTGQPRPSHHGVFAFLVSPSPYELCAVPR

Cytochrome P450 3A4 = Cytochrome P450 3A4 (Homo sapiens, UniProt P08684); test: Inhibition of CYP3A4 in human liver microsomes using midazolam as substrate preincubated for 10 mins followed by substrate addition measured for 30 mins by LC-MS analysis; assay type: ADME, Microsome
Sequence of Cytochrome P450 3A4 (P08684 whole entry): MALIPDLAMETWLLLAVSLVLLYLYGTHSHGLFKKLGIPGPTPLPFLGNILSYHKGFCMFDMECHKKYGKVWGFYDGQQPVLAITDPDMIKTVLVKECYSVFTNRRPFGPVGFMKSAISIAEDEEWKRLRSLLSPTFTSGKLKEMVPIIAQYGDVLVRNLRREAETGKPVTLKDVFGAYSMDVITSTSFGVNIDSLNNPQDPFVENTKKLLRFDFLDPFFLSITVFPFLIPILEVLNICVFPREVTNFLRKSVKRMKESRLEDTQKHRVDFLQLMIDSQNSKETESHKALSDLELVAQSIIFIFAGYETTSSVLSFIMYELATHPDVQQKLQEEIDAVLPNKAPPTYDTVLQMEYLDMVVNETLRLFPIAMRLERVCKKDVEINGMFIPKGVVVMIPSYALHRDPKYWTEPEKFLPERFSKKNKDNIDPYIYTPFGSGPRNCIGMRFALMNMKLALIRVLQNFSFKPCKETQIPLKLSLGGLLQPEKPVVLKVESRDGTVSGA

C[C@@H](COCCC(=O)N1CCN(c2ncc(C(F)(F)F)cn2)CC1)Nc1cn[nH]c(=O)c1C(F)(F)F [ATAMPARIB]
clearance [1]: 72.6 mL/min/kg
half-life [2]: 0.2 h
AUC at 24 h [3]: 470 ng·h/mL
Vd [4]: 0.714 L/kg
Tmax [5]: 0.25 h
t1/2 [6]: 2.7 h
Cmax [7]: 995 ng/mL
AUC [8]: 617 ng·h/mL
bioavailability [9]: 26.2%
inhibition in vivo at 30 mg/kg (NCI-H1373): 62.7%
Activity [10]: Non-Toxic
Activity [11]: Non-Toxic
half-life [12]: 1 h
AUC [13]: 4694 ng·h/mL
Vd [14]: 1.7 L/kg
Tmax [15]: 1.33 h
t1/2 [16]: 2.5 h
Cmax [17]: 1800 ng/mL
AUC [18]: 5508 ng·h/mL
bioavailability [19]: 23.4%
solubility kinetic [20]: 158 µM (≈ 82.7 µg/mL)
solubility kinetic [21]: 151 µM (≈ 79 µg/mL)
solubility kinetic [22]: 158 µM (≈ 82.7 µg/mL)
solubility thermodynamic [23]: 68.9 µg/mL (≈ 132 µM)
solubility thermodynamic [24]: 54.6 µg/mL (≈ 104 µM)
solubility thermodynamic [25]: 52.8 µg/mL (≈ 101 µM)
Papp A→B at 2 h [26]: 0.28 ×10⁻⁶ cm/s
Papp B→A at 2 h [27]: 3.78 ×10⁻⁶ cm/s
Papp at 2 h [28]: 1.03 ×10⁻⁶ cm/s
fraction unbound at 1 h, 2 µM [29]: 0.194
fraction unbound at 1 h, 2 µM [30]: 0.347
fraction unbound at 1 h, 2 µM [31]: 0.131
fraction unbound at 1 h, 2 µM [32]: 0.233
fraction unbound at 1 h, 2 µM [33]: 0.123
CLint scaled [34]: 23.2 mL/min/kg
CLint scaled [35]: 94.8 mL/min/kg
CLint scaled [36]: 17.1 mL/min/kg
CLint scaled [37]: 110 mL/min/kg
CLint scaled [38]: 345 mL/min/kg
IC50 (Cytochrome P450 1A2): > 30 µM
IC50 (Cytochrome P450 2C9): 3.13 µM
IC50 (Cytochrome P450 2C19): > 30 µM
IC50 (Cytochrome P450 2D6): > 30 µM
IC50 (Cytochrome P450 3A4): > 30 µM
